# Measured values published in patent publication US20220347294A1, “COMPOSITIONS AND METHODS FOR INCREASING THE EFFICACY OF IMMUNOTHERAPIES AND VACCINES” (The Regents of the University of Michigan, priority 2019, published 2022).
# What was measured:
# [1] = test system: AH1-specific CD8+ T cells; assay: Tetramer analysis of AH1-specific CD8+ T cells in PBMCs; format: in vivo, BALB/c mice
# Source text: The effect of these materials were next tested on systemic immune responses. The surrogate marker of tumor specific antigen, MHC-I minimal epitope of CT-26 gp70 (AH1) (H-2L^d-restricted SPSYVYHQF (SEQ ID NO.: 1)), was employed to quantitate the frequency of AH1-specific CD8^+ T cells among peripheral blood mononuclear cells (PBMCs). Mice orally gavaged with inulin and melatonin combined with α-PD-1 IgG induced 1.7-fold and 1.8-fold greater frequencies of AH1-specific CD8^+ T cells, compared with α-PD-1 treatment alone (FIGS. 1E and F).
# Peripheral blood mononuclear cells (PBMCs) were collected at preset times to analyze tumor antigen-specific CD8^+ T cells in the systemic circulation. Red blood cells were lysed, and the remaining cells were blocked with anti-CD16/32 antibody for 10 min and stained with peptide-MHC tetramer, including H-2L^d-restricted SPSYVYHQF (SEQ ID NO.: 1) or H-2D^b-restricted ASMTNMELM (SEQ ID NO.: 3). Both the tetramers were provided by NIH Tetramer Core Facility. Cells were also stained anti-CD8-APC (BD Biosciences, #553035) and DAPI for flow cytometric analysis.
# [2] = test system: gut microbiota; assay: Gut microbiome analysis by 16S rRNA sequencing of fecal pellets; format: in vivo, BALB/c mice
# Description: FIG. 4A-H: Responses of the diversity, richness, and structure of the gut microbiota. 1.5×10^5 CT26 cells were inoculated in BALB/c mice subcutaneously and gavaged from day 7 (5 times per week). α-PD-1 (100 μg per dose) was ip injected on days 11, 15, 19 and 23. The fecal pellets were collected on day 21 for 16s RNA analysis. (A) OTU number, (B) inverse Simposon diversity and (C) nonmetric multidimensional scaling (NMDS) score plot (based on Bray-Curtis) of gut microbiota in various groups. (D) Relative abundances of the gut microbiota at family level and […] genus level. (F) The relative abundances of lactobacillus, akkermansia, roseburia and Ruminococcus_1 in various groups. (G) The relationship of between the tumor sizes and the relative abundances of lactobacillus, akkermansia, roseburia and Ruminococcus_1. (H) The heatmap of SCFAs (lactate, propionate and butyrate) levels of various groups in fecal pellets. Data represent mean±SEM. *p<0.05, **p<0.01, ****p<0.0001, analysed by one-way ANOVA (A, B, F).
# Tumor-bearing mice received treatments as indicated above. […] Pooled amplicon library was then sequenced on the Illumina MiSeq platform using the 500 cycle MiSeq V2 Reagent kit (catalog no. MS-102-2003) according to the manufacturer's instructions with modifications of the primer set with custom read 1/read 2 and index primers added to the reagent cartridge. […]
# [3] = SCFAs measurement in fecal pellets; format: in vivo, mice; details: oral gavage of inulin
# Description: Fresh fecal pellets of mice were collected and weighted on day 20 post tumor inoculation and treatments. Fecal pellets were homogenized in DI water and centrifuged at 3000×g for 5 min. The pH of the supernatant was detected by pH meter. For SCFAs measurement, SCFAs were extracted from the fecal pellets using Milli-Q water. The solution was centrifuged for 5 min at 10000×g (4° C.) to pellet bacteria and other solids. The supernatant was collected, and SCFAs were measured via ion chromatography in University of Michigan Biological Station. The concentration of SCFAs was determined using an external standard method.
substance,measurement,setting,value
inulin,"frequencies of AH1-specific CD8+ T cells among PBMCs, fold greater than α-PD-1 treatment alone","[1]; prophylactic oral gavage combined with α-PD-1 IgG, peripheral blood day 22",1.7 fold
same,AH1-specific CD8+ T cells among PBMCs,"[1]; therapeutic setting, day 18 and 24, combined with α-PD-1",significantly higher
same,abundance of Roseburia in the gut,[2]; oral gavage with α-PD-1,increased
same,"relative abundance of Akkermansia, Lactobacillus, Ruminococcus, and Butyricicoccus","[2]; oral inulin followed by α-PD-1, compared with α-PD-1 alone or PBS group",increased
same,"concentration of lactate, propionate and butyrate in fecal pellets",[3],increased
